Laboratory results from patent EP3389689B1, “ACTIVE INGREDIENTS FOR TOPICAL APPLICATION” (priority 2015, dated 2021).

Experiments:
[1] = system: genes involved in collagen fiber maturation; test: Gene-expression analysis, summary statement in words; format: cell-based, human; details: result in words; fibroblasts, 0.01%, 24hrs
Protocol: (§1) Normal human dermal fibroblasts at passage 7 from a donor were cultured in DMEM with L-glutamine 2mM, Penicillin 50U/ml-Streptomycin 50ug/ml and 10% FCS in a 5% CO2 atmosphere at 37°C. After equilibration of cell in 1% FCS for 24hrs the respective peptides H-(beta-Ala)-Pro-Dab-NH-benzyl [CAS 823202-99-9], respectively N-palmitoyl-Gly-His-Lys [147732-56-7] / N-palmitoyl-Gly-Gln-Pro-Arg [221227-05-0] (2:1) diluted in growth medium to a concentration of 0.01% were added and the cells were incubated for an additional 24hrs. At the end of incubation cells were washed in PBS and immediately frozen at -80°C. Total RNA was extracted using NucleoSpin RNA Plus kit (Macherey-Nagel) according to supplier's instructions. cDNA was synthesized by reverse transcription of total RNA using Transcriptor Reverse Transcriptase (Roche). PCR was performed on a LightCycler device (Roche Molecular Systems Inc.) according to manufacturer's instructions. Raw data were analyzed using Microsoft Excel.

PCOLCE = test: Gene-expression analysis (PCR) in normal human dermal fibroblasts; format: cell-based; details: peptide 0.01% in growth medium, timepoint 24hrs
Protocol: as §1

LOXL2 = test: as above; format: cell-based; details: peptide 0.01% in growth medium, timepoint 24hrs
Protocol: as §1

PLOD3 = test: as above; format: cell-based; details: peptide 0.01% in growth medium, timepoint 24hrs
Protocol: as §1

ADAMTS2 = test: as above; format: cell-based; details: peptide 0.01% in growth medium, timepoint 24hrs
Protocol: as §1

N-palmitoyl-Gly-His-Lys [147732-56-7] / N-palmitoyl-Gly-Gln-Pro-Arg [221227-05-0] (2:1)
up-regulation of genes involved in collagen fiber maturation [1]: only up-regulates LOXL2 and much less PLOD3 | gene expression PCOLCE (PCOLCE): 94% | gene expression LOXL2 (LOXL2): 292% | gene expression PLOD3 (PLOD3): 163% | gene expression ADAMTS2 (ADAMTS2): 105%
